Test results reported in patent US20170327797A1, “R[…] CCCDNA, THE METHOD TO GENERATE THEREOF AND THE USE THEREOF” (priority 2015, published 2017).

How the values were obtained:
[1] = test system: HBV (HBVcircle injected C3H/HeN mice); experiment: In vivo anti-HBV drug evaluation in HBVcircle HDI mice; settings: 10 μg HBVcircle, 0.03mg/kg QD orally for 29 days from day 23
Protocol: The animals were grouped based on Day-1 body weights. On Day 0, all animals were subjected to hydrodynamic injection through tail vein within 5 seconds with 2.5-20 μg DNA in a volume (mL) of saline equivalent to 8% of body weight (g) (Liu, et al., 1999, Gene Ther, 6: 1258-66, Zhang, et al., 1999, Hum Gene Ther, 10: 1735-7). After animal exclusion due to technical failure of hydrodynamic injection or low HBV marker expression on Day 1 or Day 3, the remaining mice were maintained for long term evaluation. Blood samples were collected for serum preparation on indicated time post HDI injection.
For compound treatment, on Day 20 post HDI (DAY-3 of compound treatment), C3H/HeN mice were divided into 4 groups based on serum HBsAg levels and body weights on DAY 20. ETV and R848 were diluted in saline from stock solutions on treatment days. Vehicle was RC591. All test compounds were given orally with indicated dose and frequency.
(§1) HBeAg or HBsAg were measured by using the HBeAg or HBsAg ELISA kit (from Autobio) according to the manufacturer's direction.
HBV DNA in cell culture supernatant or mouse serum was extracted using MagNA Pure 96 System MagNA Pure 96 System (from Roche). HBV DNA levels were determined via RT-PCR. The primer and probe sequences are shown below. […]

[2] = test system: HBV (HBVcircle transfected HepG2 cells); experiment: In vitro anti-HBV drug evaluation in HBVcircle transfected HepG2 cells; type: cell-based; settings: treated 6 days
Protocol: X-[…] HP DNA transfection reagent (from Roche) was used for transfection. One day before transfection, cells were trypsinized and seeded onto plates, Cells were seeded at 0.8×10^5/well in 24 well plates for HepG2 and proliferation HepaRG cell line, and 3×10^5/well in 24 well plates for differentiated HepaRG cell line.
as §1
The transfected HepG2 cells were lysed using lysis buffer (50 mM Tris-HCl, pH8.0, 100 mM NaCl, 1% CA-630, 1×EDTA free proteinase inhibitor). After incubation at 4° C. for 1 h with agitation, cytoplasmic lysate was cleared by centrifugation. The lysate was separated by electrophoresis in 1.5% agarose gel and then transferred onto PVDF membrane (for Western blotting) or a positively charged nylon membrane (for southern blotting), for detecting the capsid protein and encapsidated DNA respectively.
After SDS-PAGE, gels were transferred to PVDF membrane by using iblot system (from Invitrogen). […]
The sample was loaded to an electrophoresis of 1.5% agarose gel in 1×TAE buffer for 2-3 hours. […] After incubating blots with an alkaline-phosphatase-conjugated anti-DIG antibody, hybridization signals were detected in a standard chemiluminescence reaction.
Next, the feasibility of evaluating anti-HBV drugs using HBVcircle system in cell culture models was assessed. […]

C=C1[C@H](CO)[C@@H](O)C[C@@H]1n1cnc2c(=O)[nH]c(N)nc21 [ETV, Entecavir]
HBV DNA in serum [1]: efficiently reduced HBV DNA in serum to undetectable level
HBV DNA replication (encapsidated HBV DNA, southern blot) [2]: efficiently blocked HBV DNA replication in a dose dependent manner
other viral proteins expression [2]: did not affect other viral proteins expression
